These results are taken from patent publication US20200209247A1, “METHODS FOR IDENTIFYING MYELOMA TUMOR-INITIATING CELLS AND TARGETED THERAPY” (UNIVERSITY OF IOWA RESEARCH FOUNDATION, priority 2017, published 2020).

The test system of this assay is RPMI-8226, RPMI-8226-R5 (a drug resistant cell line) cells. The format is cell-based, human. As to conditions: treated in vitro for 72 h; RT-PCR. The protocol: Drug resistance is a critical characteristic of TICs^43. To examine whether CD24^+ cells show higher resistance to chemotherapeutic drugs, the soft agar clonogenic formation assay was employed to examine the response to multiple drugs. […] The ARP1 cells from the 1st passage were collected and re-plated in methylcellulose dishes. CD24^+ and CD24^− ARP1 MM cells in the 2nd passage were treated with bortezomib (2 and 10 nM) or carfilzomib (2.5 and 12.5 nM) or melphalan (2.5 and 12.5 μM) for 2 weeks. CD24^+ ARP1 (FIGS. 5A & 5B) or OCI-MY5 (FIGS. 5C & 5D) MM cells were more pronounced resistant (>2.5-fold) than CD24^− ARP1 or OCI-MY5 MM cells. To directly confirm whether CD24^+ population are enriched upon chemotherapy, we treated RPMI-8226, RPMI-8226-R5 (a drug resistant cell line) cells with bortezmib or melphalan in vitro for 72 h (data not shown).

On to `CC(C)C[C@H](NC(=O)[C@H](Cc1ccccc1)NC(=O)c1cnccn1)B(O)O` [bortezomib], for which the “expression of CD24 in survival cells compared to untreated MM cells” value is “upregulated”. Take `N[C@@H](Cc1ccc(N(CCCl)CCCl)cc1)C(=O)O` [melphalan]: the “expression of CD24 in survival cells compared to untreated MM cells” value is “upregulated”.
